Reference: patent US4834982A, “Potassium-neutral salureticum with anti-hypertensive effect” (priority 1987, dated 1989)
Several values for one entry are separate records, joined by “and”; a condition that tells them apart may be missing. Identical values can stand only once. Like-named read-outs stand apart in the source and are kept apart here.

Legend:
[1] = cited from earlier work
[2] = in vivo; cited from earlier work
[3] = solubilization and binding thermodynamics of furosemide in triamterene micelles; type: physicochemical
[4] = solute permeability of ions on artificial membranes; conditions: 0.30 mM
[5] = solubility of furosemide and triamterene; type: physicochemical
[6] = contact angle measurements; type: physicochemical
[7] = 50 mg/day or 100 mg/day triamterene with 40 mg/day furosemide; cited from earlier work
[8] = 40 mg furosemide, normal volunteers; cited from earlier work
[9] = critical micelle concentration / equilibrium surface tension measurements; type: physicochemical; conditions: substances separately, 37° C.
Text: Since the interfacial molecular areas can be determined from the slopes of equilibrium surface tensions measurements from FIG. A,B, just below the break points, they are easy to compare.

Nc1nc(N)c2nc(-c3ccc(OS(=O)(=O)O)cc3)c(N)nc2n1 [hydroxy-triamterene-sulfuric acid ester]
plasma concentration relative to triamterene ([1]; intravenous, simultaneous with furosemide): about ten
potassium loss caused by furosemide ([1]; simultaneous intravenous administration with furosemide): can be impeded

NS(=O)(=O)c1cc(C(=O)O)cc(N2CCCC2)c1Oc1ccccc1 [peritanide]
half life time t1/2 [2]: about 1 h

Nc1nc(N)c2nc(-c3ccccc3)c(N)nc2n1 [triamterene]
K(T) of triamterene micelle, times smaller than for a furosemide micelle [3]: roughly 15 times
limiting value of n (aggregation number of triamterene micelles) ([3]; pH 2.5): 15
limiting value of n (aggregation number of triamterene micelles) ([3]; pH 7.9): 25
Solute permeability K (Cl) ([4]; compartment A): 170,3 ± 10,0 mol·s^-1·N^-1
Solute permeability Na (Cl) ([4]; compartment A): 111,2 ± 12,0 mol·s^-1·N^-1
Solute permeability K (Cl) ([4]; compartment B): 90,5 ± 5,0 mol·s^-1·N^-1
Solute permeability Na (Cl) ([4]; compartment B): 207,4 ± 8,0 mol·s^-1·N^-1
solubility ([5]; 37° C., molar equivalent): 0.0001184 mol/L
solubility ([5]; 37° C., molar equivalent in parentheses): 0,11 mMol
solubility ([5]; molar, read-out: solubility): 0.000118 mol/L
solubility ([5]; pH 5.5, read-out: solubility): 30 µg/mL
solubility ([5]; pH 9-11.0): 5 µg/mL
contact angle [6]: 100 deg.
natriuretic effect [7]: agument the natriuretic effect
triamterene molecules required to solubilize furosemide (controlled release form of furosemide at basic pH): 320-350 molecules
triamterene molecules required to solubilize furosemide and furosemide in controlled release form (molar basis): 298 molecules and 320 molecules and 324 molecules
half life time t1/2 [2]: 3.0 h
oral dose required to block the kaliuretic effect of furosemide [8]: 50 mg and 100 mg
critical micelle concentration (CMC) [9]: 15 µM

NS(=O)(=O)c1cc(C(=O)O)c(NCc2ccco2)cc1Cl [furosemide]
contact angle [6]: 59 deg.
contact angle ([6]; complexing to stearate, phthalate, etc.): 108 deg
critical micelle concentration (CMC) [9]: 83 µM

CCCCNc1cc(C(=O)O)cc(S(N)(=O)=O)c1Oc1ccccc1 [bumetanide]
half life time t1/2 [2]: about 1 h
